Tested on: LG0567-F671-PDC KRAS tumor spheroid viability
Test: Anticancer human tumor LG0567-F671-PDC patient-derived lung adenocarcinoma cell line growth inhibition [KRAS2]
Details: spheroids with HUVEC and MSC; for viability, T/C: stronger effect = lower value
Text: Multicellular complex tumor spheroid response to RAS pathway inhibitors in combination with a targeted agents in patient-derived cell lines with oncogenic KRAS variants from multiple cancer types
A high-throughput screen of multi-cell type tumor spheroids was designed to identify active combinations of targeted small molecules and KRAS pathway inhibitors. Complex spheroids include a stromal component modeled by human endothelial cells (HUVEC) and fibroblasts modeled by human mesenchymal stem cells (MSCs). The concentration ranges selected for each drug and investigational agent were based upon clinically achievable concentrations if the clinical Cmax of the agent was known.
Compounds. The drugs and investigational agents: BI-3406 (NSC825286), BAY-293 (NSC824723), batoprotafib (TNO155; NSC825523), sotorasib (AMG 510; NSC818433), MRTX1257 (NSC819558), elimusertib (BAY 1895344; NSC800525), molibresib (GSK525762; NSC774829), temuterkib (LY3214996; NSC803410), venetoclax (NSC766270), alisertib (NSC759677), olaparib (NSC753686), talazoparib (NSC767125), erdafitinib (NSC781556), ipatasertib (NSC767898), cabozantinib (NSC761068), nintedanib (NSC756659), abemaciclib (NSC768073), docetaxel (NSC628503), trametinib (NSC758246), and sapanisertib (NSC764658) were obtained from the National Cancer Institute (NCI) Developmental Therapeutics Program Chemical Repository. The FDA-approved anticancer drug set is available from the Developmental Therapeutics Program. […] The stock solutions were prepared in dimethyl sulfoxide (DMSO, Sigma-Aldrich, St. Louis, MO, cat. D2650) at 800-fold the tested concentration and stored at -70 degrees C prior to their use. All drugs and investigational agents were tested over a range starting from a high concentration at or near the clinical Cmax and decreasing in half-log increments. If the clinical Cmax for an agent had not been determined, the highest concentration tested was 10 microM.
Cell Culture. All cells were maintained in an incubator at 37 degrees C and 5% CO2 with 95% humidity. The PDC lines were cultured according to standard operating procedures established by the NCI PDMR (https://pdmr.cancer.gov/sops/default.htm). Briefly, all PDCs were thawed and cultured in Matrigel-coated flasks prepared with a working solution of 1X Ham's F-12 nutrient mix, without supplementation (Invitrogen, Waltham, MA, cat. 11765054), 100 U/mL penicillin-streptomycin (Invitrogen, cat. 15140122), and 2.5% Matrigel (Corning Inc., Corning, NY, cat. 354248) for the first three passages. All PDCs were cultured in complete DMEM/F-12 media containing advanced DMEM/F-12 (Invitrogen, cat. 12634028), 4.9% defined fetal bovine serum, heat inactivated (HyClone Laboratories Inc., Logan, UT, cat. SH30070.03HI), 389 ng/mL hydrocortisone (Sigma-Aldrich, cat. H4001), 9.7 ng/mL human EGF recombinant protein (Invitrogen, cat. PHG0313), 23.4 microg/mL adenine (Sigma-Aldrich, cat. A2786), 97.3 U/mL penicillin-streptomycin (Invitrogen, cat. 15140122), 1.9 mM L-glutamine (Invitrogen, cat. 25030081), and 9.7 microM Y-27632 dihydrochloride (Tocris Bioscience, Bristol, United Kingdom, cat. 1254). The PDCs were cultured in complete DMEM/F12 media without 9.7 microM Y-27632 dihydrochloride for at least two passages prior to the screen. The established cell line HOP-62 was cultured in RPMI 1640 medium, HEPES (Invitrogen, cat. 22400105) with 10% defined fetal bovine serum (HyClone Laboratories Inc., cat. SH30070.03) and 2 mM L-glutamine (Invitrogen, cat. 25030081). The pooled donor HUVEC were cultured in endothelial cell growth medium 2 (PromoCell, Heidelberg, Germany, cat. C-22011) and the hMSC were cultured in mesenchymal stem cell growth medium 2 (PromoCell, cat. C-28009). For all experiments, HUVEC and hMSC were used at passages </=5, while the malignant cell lines were used at passages </=15. […]

[1] = curve of first compound, second compound 0.1 µM
[2] = curve of first compound, second compound 0.316 µM
[3] = curve of first compound, second compound 1 µM
[4] = curve of first compound, second compound 3.16 µM
[5] = second compound 0.1 µM, first compound 0.0001 µM
[6] = second compound 0.1 µM, first compound 0.000316 µM
[7] = second compound 0.1 µM, first compound 0.001 µM
[8] = second compound 0.1 µM, first compound 0.00316 µM
[9] = second compound 0.1 µM, first compound 0.01 µM
[10] = second compound 0.1 µM, first compound 0.0316 µM
[11] = second compound 0.316 µM, first compound 0.0001 µM
[12] = second compound 0.316 µM, first compound 0.000316 µM
[13] = second compound 0.316 µM, first compound 0.001 µM
[14] = second compound 0.316 µM, first compound 0.00316 µM
[15] = second compound 0.316 µM, first compound 0.01 µM
[16] = second compound 0.316 µM, first compound 0.0316 µM
[17] = second compound 1 µM, first compound 0.0001 µM
[18] = second compound 1 µM, first compound 0.000316 µM
[19] = second compound 1 µM, first compound 0.001 µM
[20] = second compound 1 µM, first compound 0.00316 µM
[21] = second compound 1 µM, first compound 0.01 µM
[22] = second compound 1 µM, first compound 0.0316 µM
[23] = second compound 3.16 µM, first compound 0.0001 µM
[24] = second compound 3.16 µM, first compound 0.000316 µM
[25] = second compound 3.16 µM, first compound 0.001 µM
[26] = second compound 3.16 µM, first compound 0.00316 µM
[27] = second compound 3.16 µM, first compound 0.01 µM
[28] = second compound 3.16 µM, first compound 0.0316 µM
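Also: drug exposure lasted seven days after spheroids formed for three days.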
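For viability, T/C in this document: 100% = DMSO vehicle control viability.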

Row | SMILES | IC50 [1] [nM] | IC50 [2] [nM] | IC50 [3] [nM] | IC50 [4] [nM] | viability, T/C [5] [%] | viability, T/C [6] [%] | viability, T/C [7] [%] | viability, T/C [8] [%] | viability, T/C [9] [%] | viability, T/C [10] [%] | viability, T/C [11] [%] | viability, T/C [12] [%] | viability, T/C [13] [%] | viability, T/C [14] [%] | viability, T/C [15] [%] | viability, T/C [16] [%] | viability, T/C [17] [%] | viability, T/C [18] [%] | viability, T/C [19] [%] | viability, T/C [20] [%] | other results
1 | CC(=O)Nc1cccc(-n2c(=O)n(C3CC3)c(=O)c3c(Nc4ccc(I)cc4F)n(C)c(=O)c(C)c32)c1 + C=CC(=O)N1CCN(c2nc(OCC3CCCN3C)nc3c2CCN(c2cccc4cccc(C)c24)C3)CC1CC#N | < 0.1 | < 0.1 | < 0.1 | < 0.1 | 23.8 | 32.3 | 56.4 | 24.6 | 12.1 | 4.09 | 30 | 33.2 | 39.7 | 22.1 | 19.3 | 5.95 | 38.2 | 37.5 | 23.7 | 31.7 | IC50 (curve of first compound, second compound 0.0316 µM): < 0.1 nM; viability, T/C (second compound 0.0316 µM, first compound 0.0001 µM): 36.6%; viability, T/C (second compound 0.0316 µM, first compound 0.000316 µM): 35.6%; viability, T/C (second compound 0.0316 µM, first compound 0.001 µM): 34.5%; viability, T/C (second compound 0.0316 µM, first compound 0.00316 µM): 42%; viability, T/C (second compound 0.0316 µM, first compound 0.01 µM): 24.2%; viability, T/C (second compound 0.0316 µM, first compound 0.0316 µM): 7.65%; viability, T/C [21]: 15.7%; viability, T/C [22]: 6.26%; viability, T/C [23]: 30.8%; viability, T/C [24]: 22.8%; viability, T/C [25]: 12.8%; viability, T/C [26]: 12%; viability, T/C [27]: 2.28%; viability, T/C [28]: 4.58%
2 | CN(C)C/C=C/C(=O)Nc1cc2c(Nc3ccc(F)c(Cl)c3)ncnc2cc1O[C@H]1CCOC1 | – | – | – | – | – | – | – | – | – | – | – | – | – | – | – | – | – | – | – | – | viability, T/C (compound 0.000316 µM): 100% [middle of 5 runs]; viability, T/C (compound 0.001 µM): 90.1% [middle of 5 runs]; viability, T/C (compound 0.01 µM): 72.6% [middle of 5 runs]; viability, T/C (compound 0.0316 µM): 60.4% [middle of 5 runs]; viability, T/C (compound 0.1 µM): 60.7% [middle of 5 runs]; IC50 (curve of compound): > 100 nM
3 | CC(=O)Nc1cccc(-n2c(=O)n(C3CC3)c(=O)c3c(Nc4ccc(I)cc4F)n(C)c(=O)c(C)c32)c1 + CC1OCC2(CCN(c3cnc(Sc4ccnc(N)c4Cl)c(N)n3)CC2)C1N | < 0.1 | < 0.1 | < 0.1 | < 0.1 | 53.7 | 44.6 | 49.4 | 44.7 | 22.7 | 7.91 | 37.1 | 31.2 | 25.6 | 21.9 | 14.9 | 7.83 | 22.4 | 21.8 | 17.6 | 8.6 | IC50 (curve of first compound, second compound 10 µM): < 0.1 nM; viability, T/C [21]: 6.42%; viability, T/C [22]: 3.01%; viability, T/C [23]: 14.7%; viability, T/C [24]: 8.03%; viability, T/C [25]: 2.89%; viability, T/C [26]: 1.92%; viability, T/C [27]: 1.41%; viability, T/C [28]: 3.95%; viability, T/C (second compound 10 µM, first compound 0.0001 µM): 5.94%; viability, T/C (second compound 10 µM, first compound 0.000316 µM): 2.29%; viability, T/C (second compound 10 µM, first compound 0.001 µM): 2.96%; viability, T/C (second compound 10 µM, first compound 0.00316 µM): 1.63%; viability, T/C (second compound 10 µM, first compound 0.01 µM): 1.31%; viability, T/C (second compound 10 µM, first compound 0.0316 µM): 2.49%

— PubChem BioAssay AID1963856 (Molecular Pharmacology Branch, DTP, NCI, 2024)
